Results taken from US11976083B2, “Inhibitors of peptidylarginine deiminases” (Gilead Sciences, Inc., priority 2020, dated 2024).

Molecular target: T1, human PAD4 (Homo sapiens, UniProt Q9UM07)
T1 construct: human PAD4 (NM_012387), A2-P663, was PCR amplified; His-SUMO (N, cleaved yes); made in house; host or cells: E. coli BL21(DE3)
Assay: In vitro PAD4 BAEE biochemical assay
Details: BAEE substrate 3 mM, 5 nM PAD4, 2 mM calcium chloride; geometric mean of multiple experiments
In short: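 Assay was run at 25 °C using 3 mM BAEE and 5 nM human PAD4 after a 30 min compound preincubation; ammonia produced over 2 h was quantified by OPA-derived fluorescence. Full inhibition was defined by 50 µM BB-Cl-Amidine, and IC50 came from variable-slope nonlinear regression.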

T1 sequence (Q9UM07 2-663): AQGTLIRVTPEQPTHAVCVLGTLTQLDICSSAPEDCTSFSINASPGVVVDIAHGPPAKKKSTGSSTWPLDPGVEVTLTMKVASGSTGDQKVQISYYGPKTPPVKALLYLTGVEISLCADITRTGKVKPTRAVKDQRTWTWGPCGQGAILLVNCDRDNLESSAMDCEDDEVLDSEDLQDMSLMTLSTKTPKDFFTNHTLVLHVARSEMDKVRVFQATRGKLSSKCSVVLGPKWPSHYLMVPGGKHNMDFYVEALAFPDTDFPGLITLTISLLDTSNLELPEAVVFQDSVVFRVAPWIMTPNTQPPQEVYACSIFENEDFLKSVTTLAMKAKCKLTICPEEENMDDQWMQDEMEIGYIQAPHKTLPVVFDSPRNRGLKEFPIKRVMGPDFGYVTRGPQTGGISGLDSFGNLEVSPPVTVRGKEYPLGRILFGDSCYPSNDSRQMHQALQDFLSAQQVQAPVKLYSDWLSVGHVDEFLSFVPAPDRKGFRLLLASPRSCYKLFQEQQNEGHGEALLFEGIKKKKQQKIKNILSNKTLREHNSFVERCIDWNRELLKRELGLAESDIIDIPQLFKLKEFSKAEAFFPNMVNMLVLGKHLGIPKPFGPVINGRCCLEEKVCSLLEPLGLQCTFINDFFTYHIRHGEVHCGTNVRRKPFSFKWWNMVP

Compound | IC50 [nM]
COc1cc(C(=O)N2[C@H]3CC[C@@H]2[C@H](N)C3)cc2nc(-c3cc4ccc5nc4n3CCCCn3nccc3C(=O)N[C@@H]5C)c(C)n12 [Example 34, (2~{R})-15-[7-[(1~{R},2~{R},4~{S})-2-amino-7-azabicyclo[2.2.1]heptane-7-carbonyl]-5-methoxy-3-methyl-imidazo[1,2-a]pyridin-2-yl]-2-methyl-3,8,9,14,20-pentazatetracyclo[12.5.2.0^{5,9}.0^{17,21}] henicosa-1(20),5,7,15,17(21),18-hexaen-4-one] | 54
(2~{R})-17-[5-[(1~{S),4~{R}, 5~{R})-4-amino-2-azabicyclo [3.2.1]octane-2-carbonyl]-1- cyclopropyl-benzimidazol-2- yl]-8-chloro-2-methyl-3,9,16,22- tetrazatetracyclo[14.5.2.0^ {5,10}.0^{19,23}]tricosa- 1(22),5(10),6,8,17,19(23),20- heptaen-4-one [Example 926] | 23
COc1cc(C(=O)N2[C@H]3CC[C@@H]2[C@H](N)C3)cc2nc(-c3cc4ccc5nc4n3CCCCCCc3ccccc3C(=O)N[C@@H]5C)n(C)c12 [Example 40, (2~{R})-18-[5-[(1~{R},2~{R},4~{S})-2-amino-7-azabicyclo[2.2.1]heptane-7-carbonyl]-7-methoxy-1-methyl-benzimidazol-2-yl]-2-methyl-3,17,23-triazatetracyclo[15.5.2.0^{5,10).0^{20,24}] tetracosa-1(23),5,7,9,18,20(24),21-heptaen-4-one] | 24
C[C@H]1NC(=O)[C@]2(F)C[C@H]2CCCCCn2c(-c3nc4cc(C(=O)N[C@H]5CNCC[C@@H]5F)c(F)cc4n3C3CC3)cc3ccc1nc32 [Example 387, 1-cyclopropyl-6-fluoro-2-[(2~{R},5~{S},7~{R})-5-fluoro-2-methyl-4-oxo-3,13,19-triazatetracyclo[11.5.2.0^{5,7}.0^{16,20}]icosa-1(19),14,16(20),17-tetraen-14-yl]-~ {N}-[(3~{S},4~{S})-4-fluoro-3-piperidyl]benzimidazole-5-carboxamide] | 25
COc1cc(C(=O)NC2CNCC[C@@H]2F)cc2nc(-c3cc4ccc5nc4n3C[C@H]3C[C@H]3CCC[C@@](C)(C(F)(F)F)C(=O)N[C@@H]5C)n(C)c12 (stereo partly shown) [Example 373, 2-[(3~{S},5~{R},9~{R},12~{R})-9,12-dimethyl-10-oxo-9-(trifluoromethyl)-1,11,20-triazatetracyclo[11.5.2.0^{3,5}.0^{16,19}]icosa-13(20),14,16(19),17-tetraen-18-yl]-~{N}-[(3~{S},4~{S})-4-fluoro-3-piperidyl]-7-methoxy-1-methyl-benzimidazole-5-carboxamide] | 254
COc1cc(C(=O)N2[C@H]3CC[C@@H]2[C@H](N)C3)cc2nc(-c3cc4ccc5nc4n3CCCCCCOCC(=O)N[C@@H]5C)c(C)n12 [Example 248, (12~{R})-18-[7-[(1~{R},2~{R},4~{S})-2-amino-7-azabicyclo[2.2.1]heptane-7-carbonyl]-5-methoxy-3-methyl-imidazo[1,2-a]pyridin-2-yl]-12-methyl-8-oxa-1,11,20-triazatricyclo[11.5.2.0^{16,19}]icosa-13(20),14,16(19),17-tetraen-10-one] | 44
COc1cc(C(=O)N2[C@H]3CC[C@@H]2[C@H](N)C3)cc2nc(-c3cc4ccc5nc4n3CCCCCCCC(=O)N[C@H]5C(F)(F)F)n(C)c12 [Example 257, (11~{R})-17-[5-[(1~{R},2~{R},4~{S})-2-amino-7-azabicyclo[2.2.1]heptane-7-carbonyl]-7-methoxy-1-methyl-benzimidazol-2-yl]-11-(trifluoromethyl)-1,10,19-triazatricyclo[10.5.2.0^{15,18}]nonadeca-12(19),13,15(18),16-tetraen-9-one] | 2470
COc1cc(C(=O)N2[C@H]3CC[C@@H]2[C@H](N)C3)cc2nc(-c3cc4ccc5nc4n3CCCCCCC3(CC3)C(=O)N[C@@H]5C)n(C)c12 [Example 279, (11~{R})-17-[5-[(1~{R},2~{R},4~{S})-2-amino-7-azabicyclo[2.2.1]heptane-7-carbonyl]-7-methoxy-1-methyl-benzimidazol-2-yl]-11-methyl-spiro[1,10,19-triazatricyclo[10.5.2.0^{15,18}]nonadeca-12(19),13,15(18),16-tetraene-8,1′-cyclopropane]-9-one] | 82

Continued, values first:

IC50 [nM] | Compound
37 | C[C@H]1NC(=O)[C@@H]2C[C@H]2CCCC(F)(F)Cn2c(-c3nc4cc(C(=O)N[C@H]5CNCC[C@@H]5F)c(F)cc4n3C)cc3ccc1nc32 [Example 595, 2-[(2~{R},5~{R},7~ {R})-11,11-difluoro-2-methyl-4-oxo-3,13,19-triazatetracyclo[11.5.2.0^ {5,7}.0^{16,20}]icosa-1(19),14,16(20),17-tetraen-14-yl]-6-fluoro-~ {N}-[(3~{S},4~{S})-4-fluoro-3-piperidyl]-1-methyl-benzimidazole-5-carboxamide]
48 | COc1cc(C(=O)N2C[C@H]3CC[C@@H]2[C@@H]3N)cc2nc(-c3cc4ccc5nc4n3CC(F)(F)CCC[C@@H]3C[C@H]3C(=O)N[C@@H]5C)n(C)c12 [Example 853, (2~{R},5~{R},7~{R})-14-[5-[(1~{R},4~{R},7~{R})-7-amino-2-azabicyclo[2.2.1]heptane-2-carbonyl]-7-methoxy-1-methyl-benzimidazol-2-yl]-11,11-difluoro-2-methyl-3,13,19-triazatetracyclo[11.5.2.0^ {5,7}.0^{16,20}]icosa-1(19), 14,16(20),17-tetraen-4-one]
44 | C[C@H]1NC(=O)[C@@H]2C[C@@H]2C/C=C\CCn2c(-c3nc4cc(C(=O)N[C@H]5CNCC[C@@H]5F)c(F)cc4n3C3CC3)cc3ccc1nc32 [Example 519, 1-cyclopropyl-6-fluoro-~{N}-[(3~{S},4~{S})-4-fluoro-3-piperidyl]-2-[(2~{R}, 5~{R},7~{S},9~{Z})-2-methyl-4-oxo-3,13,19-triazatetracyclo[11.5.2.0^ {5,7}.0^{16,20}]icosa-1 (19),9,14,16(20),17-pentaen-14-yl]benzimidazole-5-carboxamide]
49 | COc1cc(C(=O)N2C[C@H](N)[C@@H]3CC[C@H]2C3)cc2nc(-c3cc4ccc5nc4n3CCCCCc3nc(C(F)(F)F)ccc3C(=O)N[C@@H]5C)n(C)c12 [Example 842, (2~{R})-17-[5-[(1~{S},4~{R},5~ {R})-4-amino-2-azabicyclo[3.2.1]octane-2-carbonyl]-7-methoxy-1-methyl-benzimidazol-2-yl]-2-methyl-8-(trifluoromethyl)-3,9,16,22-tetrazatetracyclo[14.5.2.0^ {5,10}.0^{19,23}]tricosa-1(22), 5(10),6,8,17,19(23),20-heptaen-4-one]
58 | CO[C@@H]1CCN(C(=O)c2cc(F)c3c(c2)nc(-c2cc4ccc5nc4n2CC(F)(F)/C=C/C[C@@H]2C[C@H]2C(=O)N[C@@H]5C)n3C2CC2)C[C@@H]1N [Example 742, (2~{R},5~{R},7~{R},9~{E})-14-[5-[(3~{S},4~{R})-3-amino-4-methoxy-piperidine-1-carbonyl]-1-cyclopropyl-7-fluoro-benzimidazol-2-yl]-11,11-difluoro-2-methyl-3,13,19-triazatetracyclo[11.5.2.0^ {5,7}.0^{16,20}]icosa-1(19), 9,14,16(20),17-pentaen-4-one]
